In patent US6440984B1, “Use of aryl-substituted pyrimidines as insecticidal and acaricidal agents” (BASF Aktiengesellschaft, priority 1998, dated 2002):

Key:
[1] = test system: Tetranychus Urticae (OP-resistant strain), 2-spotted Spider Mite (TSM); test: Two-spotted spider mite (TSM) plant-dip test, mortality after 2 days; format: in vivo; conditions: rating scale; for pest or weed control at 300 ppm: Tetranychus urticae, 48 h, read-out: TSM AD-FOLIAR 300 (ppm)
Description: (§1) Test solutions are prepared by dissolving the test compound in a 35% acetone in water mixture to give a concentration of 10,000 ppm. Subsequent dilutions are made with water as needed.
Tetranychus Urticae (OP-resistant strain), 2-spotted Spider Mite (TSM)
Sieva lima bean plants with primary leaves expanded to 7-8 cm are selected and cut back to one plant per pot. A small piece is cut from an infested leaf taken from the main colony and placed on each leaf of the test plants. This is done about 2 hours before treatment to allow the mites to move over to the test plant to lay eggs. The size of the cut, infested leaf is varied to obtain about 100 mites per leaf. At the time of test treatment, the piece of leaf used to transfer the mites is removed and discarded. The newly-infested plants are dipped in the test solution for 3 seconds with agitation and set in the hood to dry. After 2 days, one leaf is removed and mortality counts are made.

[2] = test system: Diabrotica Virgifera Virgifera Leconte, 3rd Instar Western Corn Rootworm (WCR); test: Western corn rootworm (WCR) soil test, mortality at 5 days; format: in vivo; conditions: rating scale; for pest or weed control at 50 ppm: Diabrotica virgifera, 120 h, read-out: WCR 2^ND-SOIL 50 (ppm)
Description: Diabrotica Virgifera Virgifera Leconte, 3rd Instar Western Corn Rootworm (WCR) One cc of fine talc is placed in a 30 mL wide-mouth screw-top glass jar. One mL of the appropriate acetone test solution is pipetted onto the talc so as to provide 1.25 mg of active ingredient per jar. The jars are set under a gentle air flow until the acetone is evaporated. The dried talc is loosened, 1 cc of millet seed is added to serve as food for the insects and 25 mL of moist soil is added to each jar. The jar is capped and the contents thoroughly mixed mechanically. Following this, ten 3rd instar rootworms are added to each jar and the jars are loosely capped to allow air exchange for the larvae. The treatments are held for 5 days when mortality counts are made. Missing larvae are presumed dead, since they decompose rapidly and can not be found. The concentrations of active ingredient used in this test correspond approximately to 50 kg/ha.

[3] = test system: Aphis Fabae, Mixed Instar, Bean Aphid (BA); test: Bean aphid (BA) foliar spray test, mortality after 2 days; format: in vivo; conditions: rating scale; for pest or weed control at 300 ppm: Aphis fabae, 48 h, read-out: BA AD-FOLIAR 300 (ppm)
Description: as §1
Aphis Fabae, Mixed Instar, Bean Aphid (BA)
(§2) Pots containing single nasturtium plants (Tropaeolum sp.) about 5 cm tall are infested with about 100-200 aphids one day before the test. Each pot is sprayed with the test solution for 2 revolutions of a 4 rpm turntable in a hood. The spray is directed to give complete coverage of the plants and aphids. The sprayed pots are set on their sides on white trays and held for 2 days, following which mortality estimates are made. Essentially the same method is used with respect to cotton aphid (CA).

[4] = test system: Spodoptera Eridania, 3rd Instar Larvae, Southern Armyworm (SAW); test: Southern armyworm (SAW) leaf-dip test, observations at 5 days; format: in vivo; conditions: Southern Army Worm, rating scale; for pest or weed control at 1000 ppm: Spodoptera eridania, foliar, 120 h, read-out: SAW 2^ND-FOLIAR 1000 (ppm)
Description: as §1
Spodoptera Eridania, 3rd Instar Larvae, Southern Armyworm (SAW)
A Sieva lima bean leaf expanded to 7-8 cm in length is dipped in the test solution with agitation for 3 seconds and allowed to dry in a hood. The leaf is then placed in a 100×10 mm petri dish containing a damp filter paper on the bottom and ten 3rd instar caterpillars. At 5 days, observations are made of mortality, reduced feeding, or any interference with normal molting.

Cotton Aphid (CA) = test: Cotton aphid (CA) foliar spray test, essentially the bean aphid method; format: in vivo; conditions: rating scale
Description: as §1, §2

Compound | TSM AD-FOLIAR 300 (ppm) [1] | WCR 2^ND-SOIL 50 (ppm) [2] | BA AD-FOLIAR 300 (ppm) [3] | also measured
Fc1ccc(-c2ccnc(Oc3cccc(C(F)(F)F)c3)n2)cc1 [Compound 23] | A (A 0-45% kill) | B (B 45-75% kill) |  | 
FC(F)(F)c1cccc(Oc2nccc(-c3ccccc3)n2)c1 [Compound 5] | B (B 45-75% kill) | C (C 76-100% kill) | A (A 0-45% kill) | SAW 2^ND-FOLIAR 1000 (ppm) [4]: A (A 0-45% kill)
O=[N+]([O-])c1ccc(Oc2nccc(-c3cccc(C(F)(F)F)c3)n2)cc1C(F)(F)F [Compound 19] |  | C (C 76-100% kill) | A (A 0-45% kill) | 
CCc1cnc(Oc2cccc(C(F)(F)F)c2)nc1-c1ccc(Cl)cc1 [Compound 131] |  |  |  | pest or weed control at 1000 ppm [4]: 0 to 45%; pest or weed control at 50 ppm [2]: 76 to 100%
Fc1ccc(Oc2nccc(-c3cccc(OC(F)(F)F)c3)n2)cc1C(F)(F)F [Compound 37] | A (A 0-45% kill) | B (B 45-75% kill) | A (A 0-45% kill) | SAW 2^ND-FOLIAR 1000 (ppm) [4]: C (C 76-100% kill)
FC(F)(F)Oc1ccc(-c2ccnc(Oc3ccc(Cl)c(Cl)c3)n2)cc1 [Compound 50] |  | C (C 76-100% kill) | B (B 45-75% kill) | SAW 2^ND-FOLIAR 1000 (ppm) [4]: A (A 0-45% kill)
Fc1ccc(-c2ccnc(Oc3cccc(C(F)(F)F)c3)n2)cc1C(F)(F)F [Compound 71] | A (A 0-45% kill) |  | C (C 76-100% kill) | CA-FOLIAR 300 (ppm) (Cotton Aphid (CA)): B (B 45-75% kill)
Fc1cccc(Oc2nccc(-c3cc(Cl)c(Cl)c(C(F)(F)F)c3)n2)c1 [Compound 64] | A (A 0-45% kill) | C (C 76-100% kill) |  | CA-FOLIAR 300 (ppm) (Cotton Aphid (CA)): A (A 0-45% kill)
Fc1cc(-c2ccnc(Oc3ccc(F)c(C(F)(F)F)c3)n2)ccc1Cl [Compound 78] | B (B 45-75% kill) |  |  | CA-FOLIAR 300 (ppm) (Cotton Aphid (CA)): B (B 45-75% kill)
FC(F)(F)c1cccc(Oc2nccc(-c3cccc(Cl)c3)n2)c1 [Compound 67] | A (A 0-45% kill) |  |  | CA-FOLIAR 300 (ppm) (Cotton Aphid (CA)): C (C 76-100% kill)
FC(F)(F)c1ccc(-c2ccnc(Oc3ccc(Cl)c(C(F)(F)F)c3)n2)cc1 [Compound 145] |  |  |  | pest or weed control at 300 ppm [3]: 45 to 75%; pest or weed control at 1000 ppm [4]: 0 to 45%; pest or weed control at 50 ppm [2]: 76 to 100%
FC(F)(F)Oc1cccc(-c2ccnc(Oc3cccc(C(F)(F)F)c3)n2)c1 [Compound 38] | A (A 0-45% kill) | C (C 76-100% kill) | A (A 0-45% kill) | 
Fc1cc(-c2ccnc(Oc3cc(C(F)(F)F)cc(C(F)(F)F)c3)n2)cc(C(F)(F)F)c1 [Compound 60] |  | C (C 76-100% kill) |  | SAW 2^ND-FOLIAR 1000 (ppm) [4]: C (C 76-100% kill)
FC(F)(F)c1cc(-c2ccnc(Oc3ccccc3)n2)cc(Cl)c1Cl [Compound 63] | A (A 0-45% kill) |  | A (A 0-45% kill) | CA-FOLIAR 300 (ppm) (Cotton Aphid (CA)): C (C 76-100% kill)
FC(F)(F)Oc1cccc(-c2ccnc(Oc3ccc(Cl)c(Cl)c3)n2)c1 [Compound 43] | C (C 76-100% kill) | C (C 76-100% kill) | C (C 76-100% kill) | 
CCc1cnc(Oc2ccc(Cl)c(C(F)(F)F)c2)nc1-c1cccc(C(F)(F)F)c1 [Compound 158] |  |  |  | pest or weed control at 1000 ppm [4]: 0 to 45%; pest or weed control at 50 ppm [2]: 76 to 100%
Fc1ccc(Oc2ncc(Cl)c(-c3ccc(Cl)c(Cl)c3)n2)cc1C(F)(F)F [Compound 93, 2-(3-Trifluoromethyl-4-fluorophenoxy)-4-(3,4-dichlorophenyl)-5-chloropyrimidine] |  |  |  | melting point: 90 to 92 °C
Fc1cc(-c2ccnc(Oc3cc(Cl)cc(Cl)c3)n2)cc(C(F)(F)F)c1 [Compound 59] |  | C (C 76-100% kill) | B (B 45-75% kill) | 

Compound | TSM AD-FOLIAR 300 (ppm) [1] | WCR 2^ND-SOIL 50 (ppm) [2] | BA AD-FOLIAR 300 (ppm) [3] | also measured
Fc1ccc(-c2ccnc(Oc3ccc(F)c(C(F)(F)F)c3)n2)cc1 [Compound 22, 2-(3-Trifluoromethyl-4-fluorophenoxy)-4-(4-fluorophenyl)pyrimidine] |  |  |  | pest or weed control at 300 ppm [3]: 45 to 75%; pest or weed control at 1000 ppm [4]: 0 to 45%; pest or weed control at 300 ppm [1]: 0 to 45%; pest or weed control at 50 ppm [2]: 76 to 100%
FC(F)(F)Oc1cccc(-c2ccnc(Oc3cc(C(F)(F)F)cc(C(F)(F)F)c3)n2)c1 [Compound 42] | C (C 76-100% kill) | B (B 45-75% kill) | B (B 45-75% kill) | 
CCc1cnc(Oc2cccc(C(F)(F)F)c2)nc1-c1cccc(C(F)(F)F)c1 [Compound 157] |  |  |  | pest or weed control at 300 ppm [3]: 45 to 75%; pest or weed control at 1000 ppm [4]: 0 to 45%; pest or weed control at 300 ppm [1]: 45 to 75%; pest or weed control at 50 ppm [2]: 76 to 100%
Fc1ccc(Oc2nccc(-c3ccc(C(F)(F)F)cc3)n2)cc1C(F)(F)F [Compound 129] |  |  |  | pest or weed control at 300 ppm [3]: 45 to 75%; pest or weed control at 1000 ppm [4]: 0 to 45%; pest or weed control at 50 ppm [2]: 45 to 75%
CC(C)(C)c1ccc(-c2ccnc(Oc3ccc(F)c(C(F)(F)F)c3)n2)cc1 [Compound 24] |  | C (C 76-100% kill) | A (A 0-45% kill) | 
Fc1cc(-c2ccnc(Oc3ccc(Cl)c(C(F)(F)F)c3)n2)cc(C(F)(F)F)c1 [Compound 51] |  | C (C 76-100% kill) |  | SAW 2^ND-FOLIAR 1000 (ppm) [4]: B (B 45-75% kill)
Fc1ccc(Oc2nccc(-c3cccc(Cl)c3)n2)cc1C(F)(F)F [Compound 66] | A (A 0-45% kill) | C (C 76-100% kill) |  | CA-FOLIAR 300 (ppm) (Cotton Aphid (CA)): A (A 0-45% kill)
Fc1ccc(Oc2nccc(-c3ccc(OC(F)(F)F)cc3)n2)cc1Cl [Compound 55] | A (A 0-45% kill) | C (C 76-100% kill) | A (A 0-45% kill) | SAW 2^ND-FOLIAR 1000 (ppm) [4]: A (A 0-45% kill)
Cc1cnc(Oc2cccc(C(F)(F)F)c2)nc1-c1ccccc1 [Compound 163] |  |  |  | pest or weed control at 300 ppm [3]: 0 to 45%; pest or weed control at 300 ppm [1]: 45 to 75%; pest or weed control at 50 ppm [2]: 76 to 100%
CCCc1cnc(Oc2ccc(F)c(C(F)(F)F)c2)nc1-c1cccc(C(F)(F)F)c1 [Compound 160] |  |  |  | pest or weed control at 1000 ppm [4]: 0 to 45%; pest or weed control at 300 ppm [1]: 0 to 45%; pest or weed control at 50 ppm [2]: 76 to 100%
CCc1ccc(-c2ccnc(Oc3ccc(Cl)c(Cl)c3)n2)cc1 [Compound 12] | C (C 76-100% kill) | C (C 76-100% kill) |  | SAW 2^ND-FOLIAR 1000 (ppm) [4]: C (C 76-100% kill)
FC(F)(F)Oc1cccc(-c2ccnc(Oc3ccc(Cl)c(C(F)(F)F)c3)n2)c1 [Compound 39] | A (A 0-45% kill) | B (B 45-75% kill) |  | 
Fc1ccc(Oc2nccc(-c3cccc(C(F)(F)F)c3)n2)cc1C(F)(F)F [Compound 21] | A (A 0-45% kill) | C (C 76-100% kill) | A (A 0-45% kill) | 
FC(F)(F)c1ccc(-c2ccnc(Oc3cccc(C(F)(F)F)c3)n2)cc1 [Compound 144] |  |  |  | pest or weed control at 300 ppm [3]: 45 to 75%; pest or weed control at 1000 ppm [4]: 0 to 45%; pest or weed control at 50 ppm [2]: 76 to 100%
CC(C)(C)c1ccc(-c2ccnc(Oc3ccc(Cl)c(Cl)c3)n2)cc1 [Compound 27] |  | C (C 76-100% kill) | B (B 45-75% kill) | 
Fc1ccc(Oc2nccc(-c3ccc(Cl)cc3)n2)cc1F [Compound 139] |  |  |  | pest or weed control at 300 ppm [3]: 76 to 100%; pest or weed control at 50 ppm [2]: 76 to 100%
Fc1cccc(-c2ccnc(Oc3ccc(F)c(C(F)(F)F)c3)n2)c1 [Compound 68] | B (B 45-75% kill) |  |  | CA-FOLIAR 300 (ppm) (Cotton Aphid (CA)): C (C 76-100% kill)
